Results reported in paper PMC10927086, “Effects of structurally distinct human HDAC6 and HDAC6/HDAC8 inhibitors against S. mansoni larval and adult worm stages” (PLOS Neglected Tropical Diseases, 2024).

Tests used:
[1] = MTT cytotoxicity assay on L929 fibroblasts; type: cell-based, murine; details: mouse, compounds 100-0.78 μM, GA 10-0.078 μM, 2 independent experiments
Experimental: (§1) The NCTC clone 929 (L-929) murine fibroblast isolated from subcutaneous connective tissue (ATCC-CCL-1) were cultured in Dulbecco’s Modified Eagle Medium (DMEM) supplemented with 10 mM Hepes (pH 6.98–7.30), 1 mM l-glutamine, 100 U/ml of penicillin/streptomycin (BioWhittaker, Lonza, EuroClone SpA), and heat-inactivated 10% FBS. All cells were cultured at 37°C in a 5% CO2 humidified incubator.
(§2) The MTT method was employed as previously described to determine the viability of fibroblast cell lines. Briefly, cells seeded into 96-well plates at a density of 20,000 cells/well after overnight incubation, were exposed to selected compounds at the indicated concentrations for 24–72 h. Next they were gently washed, incubated with MTT (bromuro di 3-(4,5-dimetiltiazol-2-il)-2,5-diphenyltetrazolium) for 4 h, and processed for color detection with DMSO. The resulting purple solution was spectrophotometrically measured at 570 nm using a Varioskan Lux instrument and Skanit software (Thermo Fisher Scientific).
(§3) The optical density values for both assays were expressed as a percentage of cell survival and normalized with the value of cells treated with vehicle (DMSO), and the data were analyzed using GraphPad Prism v9.5.1 software (San Diego, CA, USA).
(§4) The cytotoxicity of the hit compounds was assessed in two independent experiments on murine L929 and human BJ fibroblasts at 24 h by MTT assays. Vehicle (DMSO) and Gambogic acid (GA) were used as negative and positive control respectively. The compounds show a safe profile on both cell lines (S2 Table).
(§5) The IC50(μM) shown was calculated by dose-response curves of the compounds on murine L929 and human BJ fibroblast cells. […] The data are representative of 2 independent experiments. Gambogic acid (GA) and vehicle (DMSO) were used as positive and negative controls respectively. (DOCX)

[2] = MTT cytotoxicity assay on BJ fibroblasts; type: cell-based; details: human, compounds 100-0.78 μM, GA 10-0.078 μM, 2 independent experiments
Experimental: as §1, §2, §3, §4, §5

[3] = tested on: S. mansoni eggs laid by worm pairs; assay: Egg counts and egg maturation staging (Vogel and Prata) in vitro; type: cell-based, Schistosoma mansoni; details: exp4
Excerpt: The eggs produced by worm pairs in vitro were counted at day 3 upon treatment using an inverted Leica DM IL microscope (Leica Microsystems, Wetzlar, Germany). Images were captured with a BX41 Olympus (Olympus, Tokyo, Japan) microscope and a brightfield objective 10× served by an Olympus DP23 microscope digital camera and visualized using “CellSens Entry” software (version 3.1.1). Egg maturation morphological score was assigned based on the Vogel and Prata’s staging system of egg maturation previously reported.
Therefore at 72 h upon worm pairs treatment the eggs were counted and classified by microscopic observation according to the Vogel and Prata staging system of egg maturation and grouped as immature (stages I and II), intermediate/developed (stages III–V), viable or damaged eggs.
Panel B. Histograms represent the percentages of eggs at different maturation stages +/- SEM counted at 72 h after treatment; 5–6 microscopy images of at least 3 independent experiments were analyzed. Filled red triangles indicate viable eggs at stages I–II (immature); empty red triangles indicate damaged/morphological abnormal eggs at stages I–II (immature); filled red arrows indicate viable eggs at stages III–V (intermediate/developed); empty red arrows indicate damaged/morphological abnormal eggs at stages III-V; ef, egg fragments; sp, sperm cells; oc, oocyte. Scale Bars = 200 μm.

| SMILES | IC50 at 24 h [1] [µM] | IC50 at 24 h [2] [µM] | % Stage I/II damaged [3] [%] | % Stage I/II viable [3] [%] | %Stage II/IV/V viable [3] [%] | %Stage III/IV/V damaged [3] [%] | Stage I/II damaged counts [3] | Stage I/II viable (egg counts) [3] | Stage II/IV/V viable (egg counts) [3] | Stage III/IV/V damaged (egg counts) [3] | egg counts [3] |
| --- | --- | --- | --- | --- | --- | --- | --- | --- | --- | --- | --- |
| CC(C)=CCC[C@]1(C)C=Cc2c(O)c3c(c(CC=C(C)C)c2O1)O[C@]12C(=C[C@@H]4C[C@H]1C(C)(C)O[C@@]2(C/C=C(/C)C(=O)O)C4=O)C3=O [GA, Gambogic acid, reference compound] | 0.5 | 0.35 | – | – | – | – | – | – | – | – | – |
| CC(/C=C/C(=O)NO)=C\[C@@H](C)C(=O)c1ccc(N(C)C)cc1 [TSA, Trichostatin A, reference compound] | – | – | 100.0 | 0.0 | 0.0 | 0.0 | 1431 | 0 | 0 | 0 | 1431 |
